Columns and labels:
Test in all cases: Quantitative fluorescence assay for matrix metalloproteinases (cleavage of Mca-Pro-Leu-Gly-Leu-Dpa-Ala-Arg-NH2)
Type in all cases: biochemical
[1] = molecular target: T1, katalytische Domäne der MMP-8 (Homo sapiens, UniProt P22894)
T1 construct: dass wir statt des Gesamtenzyms nur dessen enzymatisch aktive katalytische Domäne in E. coli klonierten; made in house; host or cells: E. coli
From the text: Die Nutzung der katalytischen Domäne der MMP-8 als weiteres Testenzym wurde deshalb gewählt, weil es eine hohe Stabilität besitzt und darüber hinaus als aktives Enzym vorliegt. Es muß deshalb nicht aktiviert werden, was eine der häufigsten Fehlerursachen darstellt, da die zur Aktivierung genutzten Quecksilberverbindungen häufig mit dem Testsystem bzw. dem Enzym interferieren und dadurch die Messergebnisse verfälschen werden. Die Klonierungsstrategie gestalteten wir so, dass wir statt des Gesamtenzyms nur dessen enzymatisch aktive katalytische Domäne in E. coli klonierten. Mit der konstruierten katalytischen Domäne der MMP-8 erzielten wir ein stabiles, enzymatisch aktives und hochreines Enzym, welches für die Routineuntersuchungen der inhibitorischen Aktivität der synthetisierten Inhibitoren sehr gut geeignet war und die Messergebnisse der einzelnen Messserien miteinander vergleichbar machte. Die Klonierung und Expression der katalytischen Domäne der MMP-8 wurde entsprechend den Angaben von SCHNIERER et al. (Schnierer S, Kleine T, Gote T, Hillemann A, Knäuper V, Tschesche H: The recombinant catalytic domain of human neutrophil collagenase lacks type I collagen substrate specificity. Biochem Biophys Res Comm (1993) vol. 191 No. 2, 319-326) durchgeführt.
(§1) Durch enzymatische Spaltung des synthetischen Substrates Mca-Pro-Leu-Gly-Leu-Dpa-Ala-Arg-NH2 durch die jeweilige Kollagenase, wird die fluoreszente Gruppe Mca ((7-Methoxycoumarin-4-yl)acetyl) vom internen Quencher Dpa ((N-3-(2,4-dinitrophenyl)-L-2,3-diaminopropienyl) getrennt. Dabei erfolgt eine starke Zunahme der Fluoreszenz im Messansatz, die am Fluorimeter quantifiziert werden kann (λex 328 nm, λem 393 nm) und innerhalb der ersten Minuten linear verläuft. Eine gewisse Spezifität des Tests für Matrix-Metalloproteinasen ergibt sich einerseits aus der Aminosäuresequenz -Pro-Leu-Gly-Leu- im Substrat und andererseits durch die gewählten Inkubationsbedingungen. Matrix-Metalloproteinasen spalten das Substrat an der Bindung Gly-Leu. Gemessen wird die proteolytische Restaktivität vorinkubierter Ansätze von Enzym und Inhibitor, wobei die Substrat- und Enzymkonzentration konstant gehalten und die Inhibitorkonzentration variiert wurde. Es wurden für jeden getesteten Inhibitor drei Messreihen mit unterschiedlicher Substratkonzentration aufgenommen. Aus der zeitabhängigen Fluoreszenzzunahme wird die Enzymaktivität in Fluoreszenzeinheiten pro min berechnet. Die Bestimmung der Ki-Werte erfolgte graphisch nach der Methode von DIXON (1953) durch Auftragung der reziproken Reaktionsgeschwindigkeit 1/v (y-Achse) gegen Inhibitorkonzentration (x-Achse).
(§2) 1984 µl Messpuffer (100mM Tris-HCI pH 7,5, 100 mM NaCI, 10 mM CaCl2, 0,05% Brij 35 bzw. 50 mM MES-NaOH, pH 6.0, 10 mM CaCl2, 100 mM NaCI, 0.05% Brij 35 im Fall der KaDo MMP-3) 2 µl Inhibitor, gelöst in DMSO, bzw. DMSO allein (nichtinhibierender Ansatz) 4 µl Enzym • 5 min. Vorinkubation des Enzym-Inhibitor-Gemischs bei Raumtemperatur unter Rühren • Start der Reaktion mit 10 µl Substrat gelöst in DMSO • Aufzeichnung der zeitabhängigen Fluoreszenzzunahme über 2 - 10 min.

[2] = molecular target: T2, katalytische Domäne der MMP-3 (Homo sapiens, UniProt P08254); conditions: for Ki: Dixon plot
T2 construct: Die katalytische Domäne der humanen MMP-3 wurde nach den Angaben in folgender Publikation kloniert; made in house
Protocol: Die katalytische Domäne der humanen MMP-3 wurde nach den Angaben in folgender Publikation kloniert: Ye Q-Z, Johnson LL, Hupe DJ, Baragi V: Purification and Characterization of the Human Stromelysin Catalytic Domain Expressed in Escherichia coli. Biochemistry (1992), 31, 11231-11235). Nach Rückfaltung des Enzyms und Gelfiltration an Sephadex G-50 (Laufpuffer 100 mM Tris-HCI pH 7,5, 10 mM CaCl2, 100 mM NaCI, 0,05% Brij 35) erhielten wir ein zu 95% reines Präparat.
as §1, §2

MMP-9 = molecular target: T3, MMP-9 (Homo sapiens, UniProt P14780)
T3 construct: Das latente Enzym wird durch 30 - 60 min; Inkubation bei 37°C mit 1/100 Vol. Trypsin (10 mg/ml) aktiviert; from tissue; host or cells: human buffy coat (blood leukocytes)
Protocol: Native MMP-9 wurde reproduzierbar und in guter Ausbeute und Reinheit aus humanem Buffy Coat gewonnen. Hierzu wird Buffy Coat mit 10% (v/v) Triton X-100 auf eine Endkonzentration von 0,4% gebracht, 30 min. auf Eis geschüttelt und dann 1 Vol. 2-fach Bindungspuffer (40 mM Tris-HCI pH 7,5, 10 mM CaCl2, 1 M NaCI, 0,2% (v/v) Triton X-100) hinzugefügt und weitere 30 min. auf Eis geschüttelt. Die Lösung wird 15 min. bei 16 000 Upm an einem SS-34 Rotor bei 4°C abzentrifugiert und über Glaswolle filtriert. Das Filtrat wird mit Gelatine-Agarose, welche mit Bindungspuffer äquilibriert wurde, gebatcht und 1 Std. auf Eis geschüttelt. Die beladene Gelatine-Agarose wird in eine Säule überführt und mit mindestens 10 Vol. Bindungspuffer proteinfrei gespült. Die Elution der gebundenen MMP-9 erfolgt mit 2 Gelvolumen Bindungspuffer plus 5% (v/v) DMSO. Das Eluat kann zum Puffer-Austausch und gleichzeitiger Abtrennung geringer Verunreinigungen an MMP-2 über eine Gelfiltration an Sephadex G-75 aufgetrennt werden. Hierzu wird der Puffer I (20 mM Tris-HCI pH 7,5, 5 mM CaCl2, 100 mM NaCI, 0,1% (v/v) Triton X-100) verwendet. Das so gewonnene Eluat enthällt MMP-9 in den drei bekannten Zustandsformen: Monomer, Homodimer, Heterodimer. Die Reinheit des Enzyms beträgt ca. 90%, wobei die restlichen Fremdproteine Fibronektin und äußerst geringe Mengen an TIMP's sind. Das latente Enzym wird durch 30 - 60 min. Inkubation bei 37°C mit 1/100 Vol. Trypsin (10 mg/ml) aktiviert. Trypsin wird durch Zugabe von 1 mM PMSF oder mit einem spezifischen Inhibitor (TKI) gehemmt.
as §1, §2

[3] = molecular target: T4, katalytische Domäne der MT1-MMP (Homo sapiens, UniProt P50281)
T4 construct: Die katalytische Domäne der humanen MT1-MMP wurde nach den Angaben in folgender Publikation kloniert; made in house
Protocol: Die katalytische Domäne der humanen MT1-MMP wurde nach den Angaben in folgender Publikation kloniert: Lichte A, Kolkenbrock H, Tschesche H: The recombinant catalytic domain of membrane-type matrix metalloproteinase-1 (MT1-MMP) induces activation of progelatinase A and progelatinase A complexed with TIMP-2. FEBS letters (1996), 397, 277-282.
Nach Rückfaltung des Enyzms, Autoprozessierung zur aktiven Form und Gelfiltration an Sephadex G-50 (Laufpuffer 20 mM Tris-HCI pH 7,5, 5 mM CaCl2, 100 mM NaCI, 0,1 mM ZnCl2, 0,02% (w/v) Natriumazid) erhielten wir ein zu 95% reines Präparat.
as §1, §2

[4] = result in words, concentration not given

T2 sequence (P08254 100-272 limits assumed): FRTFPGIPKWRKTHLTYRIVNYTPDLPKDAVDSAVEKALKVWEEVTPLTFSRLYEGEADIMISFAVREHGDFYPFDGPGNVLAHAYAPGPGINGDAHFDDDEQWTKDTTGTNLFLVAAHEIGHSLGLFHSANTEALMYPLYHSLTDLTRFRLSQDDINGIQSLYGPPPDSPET
T1 sequence (P22894 100-262 limits assumed): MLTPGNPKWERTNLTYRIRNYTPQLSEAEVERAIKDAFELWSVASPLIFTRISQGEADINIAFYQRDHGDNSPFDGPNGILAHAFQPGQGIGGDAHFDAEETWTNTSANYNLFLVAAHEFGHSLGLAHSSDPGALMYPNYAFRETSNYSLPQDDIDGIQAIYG
T3 sequence (P14780 107-707 limits assumed): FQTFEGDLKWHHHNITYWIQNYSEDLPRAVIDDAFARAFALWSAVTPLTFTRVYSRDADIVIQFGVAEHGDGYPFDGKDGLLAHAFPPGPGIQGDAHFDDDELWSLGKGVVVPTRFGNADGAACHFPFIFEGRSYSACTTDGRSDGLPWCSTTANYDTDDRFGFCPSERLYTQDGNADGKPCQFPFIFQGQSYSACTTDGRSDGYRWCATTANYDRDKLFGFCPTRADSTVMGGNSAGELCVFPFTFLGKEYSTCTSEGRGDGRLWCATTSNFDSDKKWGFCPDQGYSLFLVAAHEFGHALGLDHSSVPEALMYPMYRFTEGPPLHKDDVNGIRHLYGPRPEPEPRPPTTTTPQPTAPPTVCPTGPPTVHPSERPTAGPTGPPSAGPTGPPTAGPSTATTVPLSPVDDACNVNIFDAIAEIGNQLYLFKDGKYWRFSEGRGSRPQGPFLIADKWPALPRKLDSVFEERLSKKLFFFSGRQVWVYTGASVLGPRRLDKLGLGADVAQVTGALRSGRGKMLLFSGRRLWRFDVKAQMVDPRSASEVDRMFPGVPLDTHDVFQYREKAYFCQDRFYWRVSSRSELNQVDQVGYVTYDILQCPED

Row | SMILES | MMP-8 Hemmung ([1]; bei 10 µM) | MMP-3 Hemmung ([2]; bei 10 µM) | MMP-9 Hemmung (MMP-9; bei 10 µM) | MT1-MMP Hemmung ([3]; bei 10 µM) | other results
1 | COc1cc2[nH]c(=O)n(CC(S)CS)c(=O)c2cc1OC (racemic) [Beispiel 7, (R,S)-3-(2,3-Dimercaptopropyl)-6,7-dimethoxy-chinazolin-2,4-(1H,3H)dion] | – | – | – | – | MMP-8 Hemmung ([1]; bei 1 µM): 20% Hemmung bei 1 µM; Ki [2]: 1000 nM; MMP-9 Hemmung (MMP-9; bei 1 µM): 20% Hemmung bei 1 µM; MT1-MMP Hemmung [3, 4]: keine Hemmung
2 | O=c1[nH]c2ccc(Cl)cc2c(=O)n1CC(S)CS (racemic) [Beispiel 4, (R,S)-6-Chlor-3-(2,3-dimercaptopropyl)chinazolin-2,4-(1H,3H)dion] | 60% Hemmung bei 10 µM | 15% Hemmung bei 10 µM | 50% Hemmung bei 10 µM | 60% Hemmung bei 10 µM | –
3 | Cc1cccc2[nH]c(=O)n(CC(S)CS)c(=O)c12 (racemic) [Beispiel 5, (R,S)-3-(2,3-Dimercaptopropyl)-5-methyl-chinazolin-2,4-(1H,3H)dion] | 70% Hemmung bei 10 µM | 90% Hemmung bei 10 µM | 70% Hemmung bei 10 µM | 80% Hemmung bei 10 µM | –
4 | O=C(NCc1ccccc1)c1ccc2c(=O)n(CC(S)CS)c(=O)[nH]c2c1 (racemic) [Beispiel 8, (R,S)-N-Benzyl-3-(2,3-dimercaptopropyl)-2,4-dioxo-1,2,3,4-tetrahydrochinazolin-7-carboxamide] | – | – | – | – | MMP-8 Hemmung ([1]; bei 5 µM): 30% Hemmung bei 5 µM; MMP-3 Hemmung ([2]; bei 5 µM): 30% Hemmung bei 5 µM; MMP-9 Hemmung (MMP-9; bei 5 µM): 30% Hemmung bei 5 µM; MT1-MMP Hemmung ([3]; bei 5 µM): 30% Hemmung bei 5 µM
5 | O=c1[nH]c2ccccc2c(=O)n1CC(S)CS (racemic) [Beispiel 1, (R,S)-3-(2,3-Dimercaptopropyl)chinazolin-2,4-(1H,3H)dion] | 70% Hemmung bei 10 µM | 70% Hemmung bei 10 µM | 70% Hemmung bei 10 µM | 40% Hemmung bei 10 µM | –
6 | O=c1[nH]c2sc(-c3ccccc3)cc2c(=O)n1CC(S)CS (racemic) [Beispiel 11, (R,S)-3-(2,3-Dimercaptopropyl)-6-phenylthieno[2,3-d]pyrimidin-2,4(1H,3H)-dion] | – | – | – | – | MMP-8 Hemmung ([1]; bei 1 µM): 30% Hemmung bei 1 µM; MMP-3 Hemmung [2, 4]: Keine Hemmung; MMP-9 Hemmung (MMP-9; bei 1 µM): 15% Hemmung bei 1 µM; MT1-MMP Hemmung [3, 4]: Keine Hemmung
7 | O=c1[nH]c2ccsc2c(=O)n1CC(S)CS (racemic) [Beispiel 9, (R,S)-3-(2,3-Dimercaptopropyl)thieno[3,2-d]pyrimidin-2,4(1H,3H)-dion] | – | – | – | – | MMP-8 Hemmung ([1]; bei 2,5 µM): 50% Hemmung bei 2,5 µM; Ki [2]: 250 nM; MMP-9 Hemmung (MMP-9; bei 2,5 µM): 50% Hemmung bei 2,5 µM; MT1-MMP Hemmung ([3]; bei 3 µM): 50% Hemmung bei 3 µM
8 | O=c1[nH]c2cc(Cl)ccc2c(=O)n1CC(S)CS (racemic) [Beispiel 3, (R,S)-7-Chlor-3-(2,3-dimercaptopropyl)chinazolin-2,4-(1H,3H)dion] | 87% Hemmung bei 10 µM | 97% Hemmung bei 10 µM | 83% Hemmung bei 10 µM | 73% Hemmung bei 10 µM | –
9 | O=c1[nH]c2sc3c(c2c(=O)n1CC(S)CS)CCCC3 (racemic) [Beispiel 10, (R,S)-3-(2,3-Dimercaptopropyl)-5,6,7,8-tetrahydro[1]benzothieno[2,3-d]pyrimidin-2,4(1H,3H)-dion] | 39% Hemmung bei 10 µM | 55% Hemmung bei 10 µM | 68% Hemmung bei 10 µM | 42% Hemmung bei 10 µM | –
